pIC50: −log10 of the molar value. Activity calls are given as the source filed them. The calls are words filed in the database; no cut-off is given here.
What was measured:
HeLa [1] = experiment: Photocytotoxicity against human HeLa cells assessed as cell membrane blebbing at 10 uM preincubated for 1 hr followed by blue LED light irradiation for 5 mins by differential interference contrast imaging analysis; assay type: functional, cell-based
[2] = Drug uptake in mouse NIH/3T3 cell mitochondria at 10 uM incubated for 1 to 2 hrs under 488 nanometer laser light irradiation by confocal microscopic method; assay type: ADME; settings: nih3t3, 10 µM
DNA [3] = experiment: Induction of Escherichia coli pBR322 DNA cleavage at 20 uM irradiated with blue LED light after 30 mins in presence of hydroxyl radical scavenger mannitol by agarose gel electrophoresis method; assay type: nucleic-acid assay
[4] = Dark toxicity in human A549 cells assessed as reduction in cell viability up to 10 uM measured after 24 hrs by MTT assay; assay type: cell-based; settings: a549, 24 h
HeLa [5] = experiment: Photocytotoxicity against human HeLa cells assessed as membrane protrusion at 20 uM preincubated for 1 hr followed by blue LED light irradiation for 10 mins and measured after 2.5 hrs by holotomographic method; assay type: functional, cell-based
Calf thymus DNA = experiment: Binding affinity to calf thymus DNA assessed as red shift in emission maxima; assay type: nucleic-acid assay; settings: Bos taurus
HeLa [6] = experiment: Photocytotoxicity against human HeLa cells assessed as DNA fragmentation up to 10 uM preincubated for 1 hr followed by blue LED light irradiation for 5 mins and measured after 13 hrs by Hoechst 33258 staining based fluorescence microscopic method; assay type: functional, cell-based
[7] = Drug uptake in human HeLa cell nucleus at 10 uM after 1 hr by mitotracker red staining based confocal laser scanning microscopic method; assay type: ADME, subcellular
HeLa [8] = experiment: Photocytotoxicity against human HeLa cells assessed as plasma membrane blebbing at 0.5 uM preincubated for 1 hr followed by blue LED light irradiation for 5 mins and measured after 13 hrs by propidium iodide staining based fluorescence microscopic method; assay type: functional, cell-based
DNA [9] = experiment: Induction of Escherichia coli pBR322 DNA cleavage at 20 uM after 30 mins under dark condition by agarose gel electrophoresis method; assay type: nucleic-acid assay; settings: 0.5 h
HeLa [10] = experiment: Photocytotoxicity against human HeLa cells assessed as plasma membrane blebbing at 20 uM preincubated for 1 hr followed by blue LED light irradiation for 10 mins and measured after 2.5 hrs by holotomographic method; assay type: functional, cell-based
A549 [11] = experiment: Photocytotoxicity against human A549 cells assessed as reduction in cell viability preincubated for 1 hr followed blue LED light irradiation for 5 mins and measured after 24 hrs by MTT assay; assay type: functional, cell-based
MCF7 [12] = experiment: Photocytotoxicity against human MCF7 cells assessed as reduction in cell viability preincubated for 1 hr followed blue LED light irradiation for 5 mins and measured after 24 hrs by MTT assay; assay type: functional, cell-based
HeLa [13] = experiment: Photocytotoxicity against human HeLa cells assessed as cell rounding at 20 uM preincubated for 1 hr followed by blue LED light irradiation for 10 mins and measured after 2.5 hrs by holotomographic method; assay type: functional, cell-based
MCF7 [14] = experiment: Photocytotoxicity against human MCF7 cells assessed as reduction in cell viability preincubated for 1 hr followed blue LED light irradiation for 10 mins and measured after 24 hrs by MTT assay; assay type: functional, cell-based
[15] = Drug uptake in human HeLa cell mitochondria at 10 uM after 1 hr by mitotracker red staining based confocal laser scanning microscopic method; assay type: ADME
[16] = Drug uptake in human MCF7 cell mitochondria at 10 uM incubated for 1 to 2 hrs under 488 nanometer laser light irradiation by confocal microscopic method; assay type: ADME; settings: mcf7, 10 µM
HeLa [17] = experiment: Photocytotoxicity against human HeLa cells assessed as induction of mitochondrial membrane potential depolarization at 10 uM preincubated for 1 hr followed by blue LED light irradiation for 5 mins by TMRE staining based confocal microscopic method; assay type: functional, cell-based
HeLa [18] = experiment: Photocytotoxicity against human HeLa cells assessed as reduction in cell viability preincubated for 1 hr followed blue LED light irradiation for 10 mins and measured after 24 hrs by MTT assay; assay type: functional, cell-based
HeLa [19] = experiment: Photocytotoxicity against human HeLa cells assessed as cell shrinkage at 5 uM preincubated for 1 hr followed by blue LED light irradiation for 10 to 30 mins and measured after 2.5 hrs by holotomographic method; assay type: functional, cell-based
HeLa [20] = experiment: Induction of ROS generation in human HeLa cells preincubated for 1 hr followed by blue LED light irradiation for 15 mins by DHE staining based HCS analysis; assay type: functional, cell-based
HeLa [21] = experiment: Photocytotoxicity against human HeLa cells assessed as increase in cleaved caspase-9 protein expression preincubated for 1 hr followed by blue LED light irradiation for 10 mins and measured after 18 hrs by Western blot analysis; assay type: functional, cell-based
DNA [22] = experiment: Binding affinity to Escherichia coli pBR322 DNA assessed as increase in test compound fluorescence up to 10 uM after 30 mins under blue LED light irradiation relative to control; assay type: nucleic-acid assay
[23] = Dark toxicity in human HeLa cells assessed as reduction in cell viability up to 10 uM measured after 24 hrs by MTT assay; assay type: cell-based
[24] = Dark toxicity in human HeLa cells assessed as morphological changes at 10 uM measured after 14 hrs by propidium iodide staining based fluorescence microscopic method; assay type: cell-based
DNA [25] = experiment: Induction of Escherichia coli pBR322 DNA cleavage irradiated with blue LED light after 30 mins by agarose gel electrophoresis method; assay type: nucleic-acid assay
A549 [26] = experiment: Photocytotoxicity against human A549 cells assessed as reduction in cell viability preincubated for 1 hr followed blue LED light irradiation for 10 mins and measured after 24 hrs by MTT assay; assay type: functional, cell-based
[27] = Dark toxicity in human MCF7 cells assessed as reduction in cell viability up to 10 uM measured after 24 hrs by MTT assay; assay type: cell-based; settings: mcf7, 24 h
MCF7 [28] = experiment: Photocytotoxicity against human MCF7 cells assessed as cytoplasmic shrinkage at 10 uM preincubated for 1 hr followed by 488 nanometer laser light irradiation and measured after 8 to 10 mins by confocal microscopic method; assay type: functional, cell-based
HeLa [29] = experiment: Photocytotoxicity against human HeLa cells assessed as membrane protrusion at 5 uM preincubated for 1 hr followed by blue LED light irradiation for 10 to 30 mins and measured after 2.5 hrs by holotomographic method; assay type: functional, cell-based
HeLa [30] = experiment: Photocytotoxicity against human HeLa cells assessed as cell shrinkage at 10 uM preincubated for 1 hr followed by blue LED light irradiation for 5 mins and measured after 13 hrs by propidium iodide staining based fluorescence microscopic method; assay type: functional
HeLa [31] = experiment: Photocytotoxicity against human HeLa cells assessed as plasma membrane blebbing at 5 uM preincubated for 1 hr followed by blue LED light irradiation for 10 to 30 mins and measured after 2.5 hrs by holotomographic method; assay type: functional, cell-based
NIH3T3 = experiment: Cytotoxicity against mouse NIH/3T3 cells assessed as cytoplasmic shrinkage at 10 uM preincubated for 1 hr followed by 488 nanometer laser light irradiation and measured after 16 mins by confocal microscopic method; assay type: cell-based; settings: nih3t3, 16 min
[32] = Drug uptake in human HeLa cell mitochondria at 10 uM incubated for 1 to 2 hrs under 488 nanometer laser light irradiation by confocal microscopic method; assay type: ADME
DNA [33] = experiment: Binding affinity to Escherichia coli pBR322 DNA assessed as increase in test compound fluorescence irradiated with blue LED light for 5 to 20 mins; assay type: nucleic-acid assay
HeLa [34] = experiment: Photocytotoxicity against human HeLa cells assessed as cytoplasmic shrinkage at 10 uM preincubated for 1 hr followed by 488 nanometer laser light irradiation and measured after 8 to 10 mins by confocal microscopic method; assay type: functional, cell-based

Cc1cccn2c1cc1c3ccccc3nc(-c3ccco3)c12
Activity (HeLa [1]): Active | Drug uptake [2]: Active | Activity (DNA [3]): Active | Activity [4]: Non-Toxic | Activity (HeLa [5]): Active | Activity (Calf thymus DNA): 36 nm | Activity (HeLa [6]): Active | Drug uptake [7]: Not Active | Activity (HeLa [8]): Active | Activity (DNA [9]): Non-Toxic | Activity (HeLa [10]): Active | Activity (A549 [11]): Dose-dependent effect | pIC50 (A549 [11]; A549, light or radiation study): 5.53 | Activity (MCF7 [12]): Dose-dependent effect | pIC50 (MCF7 [12]; MCF7, light or radiation study): 5.62 | Activity (HeLa [13]): Active | Activity (MCF7 [14]): Dose-dependent effect | pIC50 (MCF7 [14]; MCF7, light or radiation study): 5.78 | Drug uptake [15]: Active | Drug uptake [16]: Active | Activity (HeLa [17]): Active | Activity (HeLa [18]): Dose-dependent effect | pIC50 (HeLa [18]; light or radiation study): 5.95 | Activity (HeLa [19]): Active | Activity (HeLa [20]): Dose-dependent effect | Activity (HeLa [21]): Dose-dependent effect | fold change (FC) (DNA [22]): < 4 | Activity [23]: Non-Toxic | Activity [24]: Non-Toxic | Activity (DNA [25]): Dose-dependent effect | Activity (A549 [26]): Dose-dependent effect | pIC50 (A549 [26]; A549, light or radiation study): 5.63 | Activity [27]: Non-Toxic | Activity (MCF7 [28]): Active | Activity (HeLa [29]): Active | Activity (HeLa [30]): Active | Activity (HeLa [31]): Active | Activity (NIH3T3): Non-Toxic | Drug uptake [32]: Active | Activity (DNA [33]): Active | Activity (HeLa [34]): Active

From ChEMBL document CHEMBL4145551, “Mitochondria-targeting indolizino[3,2-c]quinolines as novel class of photosensitizers for photodynamic anticancer activity” (Eur J Med Chem, 2018)
